Experimental data reported in ChEMBL document CHEMBL5241138, “Inhibitors of Interleukin 4 Induced Protein 1 (IL4I1) as Potential Treatment for Cancer” (ACS Med Chem Lett, 2023).

Molecular target: T1, L-amino-acid oxidase (Homo sapiens, UniProt Q96RQ9)
T1 sequence (Q96RQ9 whole entry): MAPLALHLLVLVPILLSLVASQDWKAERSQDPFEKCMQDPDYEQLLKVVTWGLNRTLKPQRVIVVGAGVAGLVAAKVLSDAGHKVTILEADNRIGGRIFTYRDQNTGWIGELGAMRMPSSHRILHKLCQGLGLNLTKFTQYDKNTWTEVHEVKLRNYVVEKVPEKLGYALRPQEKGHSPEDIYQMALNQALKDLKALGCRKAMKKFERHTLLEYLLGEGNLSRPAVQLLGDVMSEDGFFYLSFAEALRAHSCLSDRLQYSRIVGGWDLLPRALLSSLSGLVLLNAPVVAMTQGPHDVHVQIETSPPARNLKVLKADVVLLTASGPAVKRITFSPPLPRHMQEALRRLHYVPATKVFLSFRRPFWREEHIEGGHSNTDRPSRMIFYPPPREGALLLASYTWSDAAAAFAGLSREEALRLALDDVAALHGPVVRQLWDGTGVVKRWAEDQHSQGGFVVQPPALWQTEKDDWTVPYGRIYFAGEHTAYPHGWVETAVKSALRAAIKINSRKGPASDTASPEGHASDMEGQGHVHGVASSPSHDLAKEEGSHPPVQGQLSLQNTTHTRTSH
Assay: Inhibition of C-terminal 6-His tagged recombinant human IL4I1 (Gln22 to His567 residues) expressed in CHO cells using Phe/Tyr/Trp as substrate assessed as inhibition of H2O2 production measured after 240 mins by Amplex red and horseradish peroxidase based fluorescence assay

- EC50: 23 nM
Structure (SMILES): O=C1C(=O)N(C2C[C@@H]3C[C@@H]3C2)CCN1Cc1ccc(-c2nccs2)nn1 (stereo partly specified)
